Assay results published in patent US6410740B1, “Heterocyclylmethyl-substituted pyrazol derivatives” (Bayer Aktiengesellschaft, priority 1996, dated 2002).
Where two headings read alike, the source gives them in different places. Blank lines part the entries; values can stand above or below the compound they belong to.

Columns and labels:
[1] = molecular target: T1, soluble guanylate cyclase (Sus scrofa, UniProt A0A4X1U7N1+A0ACM8Q7I6); assay: Stimulation of soluble guanylate cyclase in primary endothelial cells (intracellular cGMP, radioimmunological); type: cell-based; conditions: test substance 1 μM, 10-minute incubation, primary pig aortic endothelial cells, with or without SNP 1 μM (not stated which); for activation at 1 µM: 10 min, read-out: % increase in cGMP
T1 construct: endogenous in cells; host or cells: primary endothelial cells from pig aorta
T1 sequence (A0A4X1U7N1 1-619): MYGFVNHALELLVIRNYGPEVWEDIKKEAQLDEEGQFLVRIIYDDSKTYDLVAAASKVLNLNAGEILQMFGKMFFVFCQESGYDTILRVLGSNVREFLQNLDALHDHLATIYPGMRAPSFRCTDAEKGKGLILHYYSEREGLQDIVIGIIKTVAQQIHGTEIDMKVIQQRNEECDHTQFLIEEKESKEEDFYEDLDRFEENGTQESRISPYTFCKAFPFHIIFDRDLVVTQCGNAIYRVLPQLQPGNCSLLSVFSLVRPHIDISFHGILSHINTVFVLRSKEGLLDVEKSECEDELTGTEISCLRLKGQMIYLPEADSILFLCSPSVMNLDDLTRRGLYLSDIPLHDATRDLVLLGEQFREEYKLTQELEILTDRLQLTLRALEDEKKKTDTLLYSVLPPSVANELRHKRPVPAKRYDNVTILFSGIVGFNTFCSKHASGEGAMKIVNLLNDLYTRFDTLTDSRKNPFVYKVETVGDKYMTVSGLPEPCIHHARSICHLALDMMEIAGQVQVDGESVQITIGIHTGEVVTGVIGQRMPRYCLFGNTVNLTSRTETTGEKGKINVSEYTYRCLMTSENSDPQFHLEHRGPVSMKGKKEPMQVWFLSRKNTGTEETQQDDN
T1 sequence (A0ACM8Q7I6 1-688): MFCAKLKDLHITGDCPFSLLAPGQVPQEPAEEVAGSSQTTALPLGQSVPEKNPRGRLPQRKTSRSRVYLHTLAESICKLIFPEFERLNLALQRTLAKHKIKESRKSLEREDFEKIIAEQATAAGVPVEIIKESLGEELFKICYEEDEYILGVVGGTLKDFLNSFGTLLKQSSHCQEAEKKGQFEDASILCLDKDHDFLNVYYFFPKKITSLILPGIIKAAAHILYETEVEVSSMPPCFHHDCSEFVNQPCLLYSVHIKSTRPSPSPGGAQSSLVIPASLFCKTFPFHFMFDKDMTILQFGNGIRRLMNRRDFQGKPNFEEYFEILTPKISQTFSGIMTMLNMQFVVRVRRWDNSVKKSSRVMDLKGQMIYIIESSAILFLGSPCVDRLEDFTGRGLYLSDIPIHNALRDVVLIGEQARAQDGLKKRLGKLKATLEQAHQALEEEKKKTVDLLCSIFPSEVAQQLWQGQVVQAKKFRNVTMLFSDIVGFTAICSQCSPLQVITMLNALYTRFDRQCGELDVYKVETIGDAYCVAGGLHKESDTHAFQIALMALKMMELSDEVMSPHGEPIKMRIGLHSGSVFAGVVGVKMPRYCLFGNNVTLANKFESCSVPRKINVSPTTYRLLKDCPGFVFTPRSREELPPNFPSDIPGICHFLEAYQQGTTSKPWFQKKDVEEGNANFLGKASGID
Description: Stimulation of Soluble Guanylate Cyclase in Primary Endothelial Cells
(§1) Primary endothelial cells were isolated from pig aortas by treatment with collagenase solution. The cells were then cultured in a culture medium until confluence was reached. For the investigations, the cells were subjected to passaging, sown in cell culture plates and subcultured until confluence was reached. To stimulate the endothelial guanylate cyclase, the culture medium was suctioned off and the cells were washed once with Ringer's solution and incubated in stimulation buffer with or without an NO donor (sodium nitroprusside, SNP, 1 μM). Thereafter, the test substances (final concentration 1 μM) were pipetted onto the cells. At the end of the 10-minute incubation period, the buffered solution was suctioned off and the cells were lysed at −20° C. for 16 hours. The intracellular cGMP was then determined radioimmunologically.
as §1, with “sucked” for “suctioned”
as §1, with “without” for “without an”, “buffer” for “buffered”

[2] = system: rabbit aortic rings precontracted with phenylephrine; assay: Vessel-relaxing action in vitro on isolated aortic rings precontracted with phenylephrine; conditions: rabbit aorta rings, phenylephrine contraction
Description: Vessel-relaxing Action in vitro
Rings 1.5 mm wide of an aorta isolated from a rabbit are introduced individually, under pretension, in 5 ml organ baths with Krebs-Henseleit solution warmed to 37° C. and gassed with carbogen. The contraction force is amplified and digitalized and recorded in parallel on a line recorder. To generate a contraction, phenylephrine is added cumulatively to the bath in an increasing concentration.
(§2) After several control cycles, the substance to be investigated is investigated in each further pass in each case in an increasing dosage, and a comparison is made with the level of the contraction achieved in the last preliminary pass. The concentration necessary to reduce the level of the control value by 50% (IC50) is calculated from this. The standard application volume is 5 μl.
as §2, with “this.” for “this. The standard application volume is 5 μl.”
The standard application volume is 5 μl.

[3] = Oryctolagus cuniculus, iv, embodiment IV
[4] = Oryctolagus cuniculus, embodiment II
[5] = Oryctolagus cuniculus, embodiment III

SMILES: Cc1cnc(-c2nn(Cc3ccccc3F)c3ccccc23)nc1C [II-43]
activation at 1 µM ([1]; embodiment II): > 1000%

SMILES: OCc1ccc(-c2nn(Cc3c(F)cccc3F)c3ccccc23)o1 [IV-165]
IC50 [2, 3]: 29 µM
activation at 1 µM ([1]; embodiment IV): 256%

SMILES: OCc1nnc(-c2nn(Cc3ccccc3F)c3ccccc23)o1 [III-76]
IC50 ([2]; embodiment III): 7.4 µM
% increase in cGMP ([1]; embodiment III): 397%

SMILES: CNc1nc(-c2nn(Cc3ccccc3)c3ccccc23)ncc1Cl [II-48]
IC50 [2, 4]: 13 µM
activation at 1 µM ([1]; embodiment II): > 1000%

SMILES: O=Cc1ccc(-c2nn(Cc3ccc(F)cc3)c3ccccc23)o1 [IV-148]
IC50 [2, 3]: 6.7 µM
activation at 1 µM ([1]; embodiment IV): 978%

SMILES: CCOC(=O)c1coc(-c2nn(Cc3ccccc3)c3ccccc23)n1 [III-93]
activation at 1 µM ([1]; embodiment III): 271%

SMILES: N#Cc1cccc(Cn2nc(-c3ccc(CO)o3)c3ccccc32)c1 [IV-166]
IC50 [2, 3]: 18 µM

SMILES: O/N=C/c1ccc(-c2nn(Cc3ccccc3)c3ccccc23)o1 [IV-153]
IC50 [2, 3]: 9.1 µM
activation at 1 µM ([1]; embodiment IV): 341%

SMILES: Cc1nc(-c2nn(Cc3ccccc3)c3ccccc23)nc(C)c1C [II-46]
activation at 1 µM ([1]; embodiment II): 390%

SMILES: CC(=O)OCc1oc(-c2nn(Cc3ccccc3)c3ccccc23)nc1C [III-77]
IC50 [2, 5]: 8.3 µM
activation at 1 µM ([1]; embodiment III): > 1000%

SMILES: N#Cc1cnc(-c2nn(Cc3ccccc3)c3ccccc23)nc1N [II-49]
IC50 [2, 4]: 65 µM
activation at 1 µM ([1]; embodiment II): > 1000%

SMILES: Fc1ccccc1Cn1nc(-c2ncccn2)c2ccccc21 [II-40]
IC50 [2, 4]: 24 µM
activation at 1 µM ([1]; embodiment II): > 1000%

SMILES: Cc1cnc(-c2nn(Cc3ccccc3)c3ccccc23)nc1C [II-38, 1-Benzyl-3-(4,5-dimethyl-2-pyrimidyl)indazole]
IC50 [2, 4]: 11 µM
activation at 1 µM ([1]; embodiment II): > 1000%

SMILES: CCOC(OCC)c1nc(-c2nn(Cc3ccccc3)c3ccccc23)ncc1C [II-45]
activation at 1 µM ([1]; embodiment II): 326%

SMILES: Cc1nc(-c2nn(Cc3ccccc3)c3ccccc23)nc(C)c1Cl [II-47]
activation at 1 µM ([1]; embodiment II): 240%

SMILES: N#Cc1ccccc1Cn1nc(-c2ncccn2)c2ccccc21 [II-41]
IC50 [2, 4]: 13 µM
activation at 1 µM ([1]; embodiment II): 557%

SMILES: Cc1cnc(-c2nn(Cc3ccccc3C#N)c3ccccc23)nc1C [II-44]
activation at 1 µM ([1]; embodiment II): > 1000%

SMILES: O=[N+]([O-])c1ccc(-c2nn(Cc3ccccc3)c3ccccc23)o1 [IV-143, 1-Benzyl-3-(5-nitrofuran-2-yl)-indazole]
activation at 1 µM ([1]; embodiment IV): > 1000%

SMILES: CC(=O)OCc1nnc(-c2nn(Cc3ccccc3F)c3ccccc23)o1 [III-78]
IC50 [2, 5]: 10 µM
activation at 1 µM ([1]; embodiment III): 223%

SMILES: CCOCc1oc(-c2nn(Cc3ccccc3)c3ccccc23)nc1C [III-91]
activation at 1 µM ([1]; embodiment III): 479%

SMILES: COCc1oc(-c2nn(Cc3ccccc3)c3ccccc23)nc1C [III-90]
IC50 [2, 5]: 4.1 µM

SMILES: OCc1nnc(-c2nn(Cc3ccccc3F)c3ccccc23)o1 [III-79]
IC50 [2, 5]: 13 µM
% increase in cGMP ([1]; embodiment III): 124%

SMILES: OCc1cnc(-c2nn(Cc3ccccc3F)c3ccccc23)s1 [III-95]
IC50 [2, 5]: 2.4 µM

SMILES: Cc1cc(C)c(C#N)c(-c2nn(Cc3ccccc3)c3ccccc23)n1 [II-60]
IC50 [2, 4]: > 30 µM

Next, values leading:

IC50 [2, 4]: > 30 µM
SMILES: Cc1cc(-c2nn(Cc3ccccc3)c3ccccc23)nc(Cl)n1 [II-51]

IC50 [2, 4]: 13 µM
activation at 1 µM ([1]; embodiment II): 225%
SMILES: OCc1cccc(-c2nn(Cc3ccccc3)c3ccccc23)n1 [II-36, 1-Benzyl-3-(6-hydroxymethyl-2-pyridyl)indazole]

IC50 [2, 4]: > 33 µM
activation at 1 µM ([1]; embodiment II): 268%
SMILES: Cc1cccc(-c2nn(Cc3ccccc3)c3ccccc23)n1 [II-59]

IC50 [2, 3]: 12 µM
activation at 1 µM ([1]; embodiment IV): 723%
SMILES: CC(O)c1ccc(-c2nn(Cc3ccccc3)c3ccccc23)o1 (centres unmarked) [IV-139, 1-[5-(1-Benzylindazol-3-yl)-furan-2-yl]-ethanol]

IC50 [2, 4]: 18 µM
activation at 1 µM ([1]; embodiment II): 428%
SMILES: Nc1nccc(-c2nn(Cc3ccccc3)c3ccccc23)n1 [II-53]

IC50 [2, 5]: 15 µM
activation at 1 µM ([1]; embodiment III): 455%
SMILES: OCc1csc(-c2nn(Cc3ccccc3)c3ccccc23)n1 [III-82]

IC50 [2, 4]: 14 µM
activation at 1 µM ([1]; embodiment II): 397%
SMILES: OCCNc1nccc(-c2nn(Cc3ccccc3)c3ccccc23)n1 [II-52]

activation at 1 µM ([1]; embodiment II): 271%
SMILES: c1ccc(Cn2nc(-c3ccccn3)c3ccccc32)cc1 [II-58]

IC50 [2, 5]: 19 µM
activation at 1 µM ([1]; embodiment III): 268%
SMILES: c1ccc(Cn2nc(-c3ncco3)c3ccccc32)cc1 [III-87]

IC50 [2, 4]: 11 µM
activation at 1 µM ([1]; embodiment II): 909%
SMILES: c1ccc(Cn2nc(-c3ncccn3)c3ccccc32)cc1 [II-39]

IC50 [2, 3]: 12 to 17 µM
activation at 1 µM ([1]; embodiment IV): 619%
SMILES: CC(=O)c1ccc(-c2nn(Cc3ccccc3)c3ccccc23)o1 [IV-140, 3-(5-Acetylfuran-2-yl)-1-benzyl-indazole]

IC50 [2, 4]: > 33 µM
activation at 1 µM ([1]; embodiment II): 233%
SMILES: Cc1cncc(-c2nn(Cc3ccccc3)c3ccccc23)n1 [II-56]

activation at 1 µM ([1]; embodiment IV): 324%
SMILES: O=Cc1ccc(-c2nn(Cc3ccccc3)c3ccccc23)o1 [IV-138, 1-Benzyl-3-(5-formylfuran-2-yl)-indazole]

IC50 [2, 4]: > 35 µM
SMILES: c1ccc(Cn2nc(-c3cnccn3)c3ccccc32)cc1 [II-55]

IC50 [2, 4]: 10 µM
activation at 1 µM ([1]; embodiment II): 611%
SMILES: Cc1ccnc(-c2nn(Cc3ccccc3)c3ccccc23)n1 [II-42]

activation at 1 µM ([1]; embodiment III): 319%
SMILES: OCc1cnc(-c2nn(Cc3ccccc3)c3ccccc23)s1 [III-92]

IC50 [2, 3]: 12 µM
activation at 1 µM ([1]; embodiment IV): 289%
SMILES: OCc1coc(-c2nn(Cc3ccccc3)c3ccccc23)c1 [IV-164]

IC50 [2, 4]: > 30 µM
SMILES: Cc1cc(Cl)cc(-c2nn(Cc3ccccc3)c3ccccc23)n1 [II-61]

IC50 [2, 3]: 11 µM
activation at 1 µM ([1]; embodiment IV): 921%
SMILES: Cc1cc(-c2nn(Cc3ccccc3)c3ccccc23)oc1CO [IV-179]

IC50 [2, 5]: 12 µM
activation at 1 µM ([1]; embodiment III): 110%
SMILES: OCc1nnc(-c2nn(Cc3ccccc3)c3ccccc23)o1 [III-81]

IC50 [2, 5]: 7.1 µM
SMILES: CCc1coc(-c2nn(Cc3ccccc3)c3ccccc23)n1 [III-88]
